Laboratory results reported in US8466162B2, “5-alkynyl-pyridines” (Boehringer Ingelheim International GmbH, priority 2011, dated 2013).

How the values were obtained:
[1] = test system: MB453 cells; test: alamarBlue MB453 cell assay (antiproliferative/cytotoxicity); assay type: cell-based; details: Homo sapiens; MDA MB 453 breast cancer cell line
Text: (§1) The H460, MB453, U87, MCF7 and BT474 alamarBlue cell assays provide EC50 values indicative of the antiproliferative or cytotoxic effects of the compounds to respectively the H460 (human non small cell line cancer), MB-453 (breast cancer cell line), U87 (glioblastoma cell line), MCF7 (breast cancer cell line) and BT474 (breast cancer cell line). As known in the field, antiproliferative or cytotoxic effect against this cell lines would be expected to be indicative of activity in treating lung, breast and brain cancers. See R. Marone R et al. Biochim. Biophys. Acta. 2008 January; 1784(1):159-85. S. Yaguchi et al., J. Natl. Cancer Inst. 2006 Apr. 19; 98(8):545-56.
(§2) Method Type: Antiproliferative/Cytotoxicity
(§3) alamarBlue® is designed to provide a rapid and sensitive measure of cell proliferation and cytotoxicity in various human and animal cell lines. The assay is based on the reduction of alamarBlue in the reducing environment of living (metabolically active) cells. In the presence of added cytotoxic or antiproliferative compounds, the innate metabolic activity ceases.
(§4) AlamarBlue is soluble and stable in culture medium. Measurements are made fluorometrically by exciting at 530-560 nm and measuring emission at 590 nm. In reporting percent alamarBlue reduction by monitoring fluorescence, data are expressed as fluorescence emission intensity units as a function of time of incubation.
(§5) 3. Equipment • 96-well plates, flat bottom (Falcon, Cat. No.: 353072) • 96-well plates, U-shaped (Costar, Cat. No.: 3799) • CO2-Incubator • Microplate Reader, Spectramax Plus, Molecular Devices 4. Typical Procedure • Day 0: Seed 3000 BT-474 cells (IMDM/5% FCS, 1% NEAA, 1% Sodiumpyruvat) in 150 μl medium into a 96-well plate, flat bottom (include mediumblank). Incubate plates at 37° C. in a CO2 incubator overnight. • Day 1: Dilute compounds to a concentration 40 μM ->1:3 in medium, 10 dilution steps, in 96-well plates. • Add 50 μl per well of each dilution (total volume per well 200 μl; final conc. of cpds: 10 μM ->1:3). If required, test further dilutions. • All concentrations are tested in duplicates. • Controls: Cells w/o cpd. (+50 μl medium/DMSO). • Cells are incubated with compounds for 5-6 days. • Day 6 or 7: Add 25 μl of alamarBlue solution to each well and incubate for 8 hours at 37° C. Measure fluorescence by exciting at 530-560 nm and measuring emission at 590 nm 5. Evaluation • Subtract average value for medium blank from sample readings • Calculate EC50 using GraphPad Prism (Fifty)

[2] = target: T1, PI3Kalpha (Homo sapiens, UniProt P42336); test: Inhibition of PI3Kalpha-induced PIP-2 phosphorylation (filter-binding assay, 33P-ATP); assay type: biochemical; details: PI3 Kinase alpha (p85alpha/His-p110alpha), 1 μM ATP; read-out: IC50 PI3Kα
T1 construct: His (N); made in house; host or cells: SF9 insect cells (baculovirus co-infection)
Description: Biological Methods Inhibition of PI3Kalpha-Induced PIP-2 Phosphorylation
See also J. A. Engelman, Nature Reviews Cancer, 2009, 9, 550-562; A. Carnero, Expert Opin. Investig. Drugs, 2009, 18, 1265-1277 and P. Liu et al., Nature Reviews Drug Discovery, 2009, 8, 627-64.
Method Type: Filter-Binding-Assay
Aliquoted in desired amounts and stored at −80° C. […] Assay Procedure
The substrate-containing lipid vesicles are dissolved to a concentration of 0.637 mg lipid blend/ml assay buffer (with BSA, freshly added) in 50 ml Falcon ->keep on ice, followed by ultrasonication (pulse of 15 sec followed by a pause of 10 sec, 4×). Compounds are serially diluted in assay buffer+6% DMSO and 10 μl of each dilution is added per well of a 96-well plate (compounds are tested in duplicates) and mixed with 30 μl of the lipid vesicles containing PDGFR-Peptide (0.5 μM final) and PI3K alpha (25 ng/well final). The mixture is then incubated for 20 minutes at room temperature.
Subsequently, 20 μl of assay buffer containing 3 μM cold ATP and 0.5 μCi/20 μl 33P-ATP are added. The plates are then incubated at room temperature for 120 minutes (shaking with 300 rpm).
The reaction mix is transferred onto filter plates using “filtermate harvester” from Packard: filter plates are rinsed with PBS, then the reaction mix is filtered onto the filter plate, washed 5 times with PBS and are allowed to dry for 30-60 minutes at 50° C. The plate bottom is sealed with Perkin Elmer white adhesive foil and 25 μl/well Microscint0 are added, the top is covered with transparent adhesive foil and the plate is measured with Wallac Trilux 1450 Microbeta Counter.
As positive control serve wells containing vehicle controls (1% DMSO in assay buffer), showing non-inhibited kinase activity (high values). Wells containing assay buffer instead of enzyme can serve as control for background activity (low values).
Calculate IC50 values using the Smiley program (based on GrapPad Prism)

[3] = test system: U87 cells; test: alamarBlue U87 cell assay (antiproliferative/cytotoxicity); assay type: cell-based; details: U-87MG human glioblastoma cells
Text: as §1, §2, §3, §4, §5

[4] = test system: BT474 cells; test: alamarBlue BT474 cell assay (antiproliferative/cytotoxicity); assay type: cell-based; details: BT-474 human breast cancer cell line, 5-6 days incubation
Text: as §1, §2, §3, §4, §5

[5] = test system: H460 cells; test: alamarBlue H460 cell assay (antiproliferative/cytotoxicity); assay type: cell-based; details: NCI-H460; H460 human lung carcinoma cells
Text: as §1, §2, §3, §4, §5

[6] = test system: MCF7 cells; test: alamarBlue MCF7 cell assay (antiproliferative/cytotoxicity); assay type: cell-based; details: MCF7 human breast cancer cell line
Text: as §1, §2, §3, §4, §5

T1 sequence (P27986 whole entry): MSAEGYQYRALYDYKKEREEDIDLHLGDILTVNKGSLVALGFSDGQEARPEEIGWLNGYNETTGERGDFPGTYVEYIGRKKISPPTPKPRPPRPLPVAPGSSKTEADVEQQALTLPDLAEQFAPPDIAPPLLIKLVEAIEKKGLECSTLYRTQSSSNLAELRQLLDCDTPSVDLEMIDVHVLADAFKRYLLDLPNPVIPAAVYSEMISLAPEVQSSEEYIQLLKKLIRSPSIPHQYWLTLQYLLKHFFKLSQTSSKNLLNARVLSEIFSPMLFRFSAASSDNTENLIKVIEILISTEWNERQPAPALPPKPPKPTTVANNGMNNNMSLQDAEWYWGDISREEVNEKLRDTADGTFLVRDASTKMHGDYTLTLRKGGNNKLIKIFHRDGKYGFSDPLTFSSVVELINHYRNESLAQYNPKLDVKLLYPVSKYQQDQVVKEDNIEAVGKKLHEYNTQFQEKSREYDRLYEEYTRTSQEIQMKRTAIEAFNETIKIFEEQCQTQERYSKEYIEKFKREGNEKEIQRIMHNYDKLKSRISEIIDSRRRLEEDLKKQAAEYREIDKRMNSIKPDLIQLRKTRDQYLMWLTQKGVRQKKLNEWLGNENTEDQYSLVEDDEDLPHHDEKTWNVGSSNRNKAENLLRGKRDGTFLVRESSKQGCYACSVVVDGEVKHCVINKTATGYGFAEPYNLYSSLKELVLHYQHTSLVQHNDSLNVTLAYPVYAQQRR
T1 sequence (P42336 whole entry): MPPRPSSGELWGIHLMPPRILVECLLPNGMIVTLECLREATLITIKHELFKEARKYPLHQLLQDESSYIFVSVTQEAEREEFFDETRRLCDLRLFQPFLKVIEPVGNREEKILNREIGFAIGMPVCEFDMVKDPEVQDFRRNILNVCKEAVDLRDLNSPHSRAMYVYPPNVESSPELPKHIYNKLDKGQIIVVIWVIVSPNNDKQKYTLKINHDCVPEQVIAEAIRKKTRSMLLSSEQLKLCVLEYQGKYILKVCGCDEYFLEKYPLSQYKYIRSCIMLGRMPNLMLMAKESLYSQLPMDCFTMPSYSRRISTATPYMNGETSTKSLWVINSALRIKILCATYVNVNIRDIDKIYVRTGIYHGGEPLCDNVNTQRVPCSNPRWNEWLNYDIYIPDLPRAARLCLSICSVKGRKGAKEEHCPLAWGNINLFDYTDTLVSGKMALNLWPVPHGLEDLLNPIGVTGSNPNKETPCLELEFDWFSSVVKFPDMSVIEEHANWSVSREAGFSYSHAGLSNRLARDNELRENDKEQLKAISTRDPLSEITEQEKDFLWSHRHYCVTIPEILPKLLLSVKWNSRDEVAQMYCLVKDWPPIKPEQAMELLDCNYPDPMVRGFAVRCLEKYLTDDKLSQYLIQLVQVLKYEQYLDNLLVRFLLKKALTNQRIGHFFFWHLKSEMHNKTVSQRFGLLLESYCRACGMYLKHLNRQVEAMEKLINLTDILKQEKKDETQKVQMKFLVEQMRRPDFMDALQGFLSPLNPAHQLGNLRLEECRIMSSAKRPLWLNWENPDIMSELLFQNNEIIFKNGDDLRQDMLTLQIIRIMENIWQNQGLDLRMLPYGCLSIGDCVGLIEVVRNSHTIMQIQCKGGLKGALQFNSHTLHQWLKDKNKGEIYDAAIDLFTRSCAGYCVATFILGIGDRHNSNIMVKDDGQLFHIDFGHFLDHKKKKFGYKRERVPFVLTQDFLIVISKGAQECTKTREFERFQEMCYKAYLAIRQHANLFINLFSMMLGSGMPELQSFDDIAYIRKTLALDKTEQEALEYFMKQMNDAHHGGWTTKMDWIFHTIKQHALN

SMILES | EC50 [1] | IC50 [2] | EC50 [3] | EC50 [4] | EC50 [5] | EC50 [6]
CCc1ncnc(-c2ccnc(C)c2)c1C#Cc1cnc(C)c(NS(=O)(=O)c2ccccc2OC)c1 [Example 96, N-{5-[4-Ethyl-6-(2-methyl-pyridin-4-yl)-pyrimidin-5-ylethynyl]-2-methyl-pyridin-3-yl}-2-methoxy-benzenesulfonamide] | 0.102 µM | 0.00071 µM | 0.225 µM | 0.084 µM | 0.093 µM | –
CCc1ncnc(-c2cccc(C#N)c2)c1C#Cc1cnc(C)c(NS(=O)(=O)c2ccc(F)cc2F)c1 [Example 29, N-{5-[4-(3-Cyano-phenyl)-6-ethyl-pyrimidin-5-ylethynyl]-2-methyl-pyridin-3-yl}-2,4-difluoro-benzenesulfonamide] | 0.258 µM | 0.00092 µM | – | 0.282 µM | 0.255 µM | 0.083 µM
CCc1ncnc(-c2ccc(CN)nc2)c1C#Cc1cnc(C)c(NS(=O)(=O)c2ccc(F)cc2F)c1 [Example 104, N-{5-[4-(6-Aminomethyl-pyridin-3-yl)-6-ethyl-pyrimidin-5-ylethynyl]-2-methyl-pyridin-3-yl}-2,4-difluoro-benzenesulfonamide] | 0.119 µM | 0.00064 µM | 0.605 µM | 0.127 µM | 0.955 µM | –
CCc1ncnc(-c2ccnc(C)c2)c1C#Cc1cnc(C)c(NS(=O)(=O)c2cc(Cl)ccc2OC)c1 [Example 101, 5-Chloro-N-{5-[4-ethyl-6-(2-methyl-pyridin-4-yl)-pyrimidin-5-ylethynyl]-2-methyl-pyridin-3-yl}-2-methoxy-benzenesulfonamide] | 0.089 µM | 0.00065 µM | 0.259 µM | 0.102 µM | 0.082 µM | –
CCc1ncnc(-c2ccnc(C)c2)c1C#Cc1cnc(C)c(NS(=O)(=O)c2cc(C)ccc2OC)c1 [Example 102, N-{5-[4-Ethyl-6-(2-methyl-pyridin-4-yl)-pyrimidin-5-ylethynyl]-2-methyl-pyridin-3-yl}-2-methoxy-5-methyl-benzenesulfonamide] | 0.146 µM | 0.001 µM | 0.319 µM | 0.149 µM | 0.104 µM | –
CCc1ccc(S(=O)(=O)Nc2cc(C#Cc3c(CC)ncnc3-c3ccnc(C)c3)cnc2C)cc1 [Example 100, 4-Ethyl-N-{5-[4-ethyl-6-(2-methyl-pyridin-4-yl)-pyrimidin-5-ylethynyl]-2-methyl-pyridin-3-yl}-benzenesulfonamide] | 0.746 µM | 0.005 µM | 0.819 µM | 0.733 µM | 0.558 µM | –
CCc1nc(N)nc(-c2ccnc(C)c2)c1C#Cc1cnc(C)c(NS(C)(=O)=O)c1 [Example 15, N-{5-[2-Amino-4-ethyl-6-(2-methyl-pyridin-4-yl)-pyrimidin-5-ylethynyl]-2-methyl-pyridin-3-yl}-methanesulfonamide] | – | 0.00095 µM | – | 0.107 µM | 0.294 µM | 0.04 µM
COc1ncc(C#Cc2c(C)nc(N)nc2-c2ccnc(C)c2)cc1NS(=O)(=O)c1ccc(F)cc1F [Example 22, N-{5-[2-Amino-4-methyl-6-(2-methyl-pyridin-4-yl)-pyrimidin-5-ylethynyl]-2-methoxy-pyridin-3-yl}-2,4-difluoro-benzenesulfonamide] | – | 0.00036 µM | – | 0.029 µM | 0.013 µM | 0.003 µM
CCc1ncnc(-c2ccc(C(=O)N3CCN(C)CC3)c(F)c2)c1C#Cc1cnc(C)c(NS(C)(=O)=O)c1 [Example 81, N-(5-{4-Ethyl-6-[3-fluoro-4-(4-methyl-piperazine-1-carbonyl)-phenyl]-pyrimidin-5-ylethynyl}-2-methyl-pyridin-3-yl)-methanesulfonamide] | – | 0.003 µM | – | 0.477 µM | 2.35 µM | 0.301 µM
CCc1ncnc(-c2ccnc(C)c2)c1C#Cc1cnc(C)c(NS(=O)(=O)c2ccc(C(C)(C)C)cc2)c1 [Example 99, 4-tert-Butyl-N-{5-[4-ethyl-6-(2-methyl-pyridin-4-yl)-pyrimidin-5-ylethynyl]-2-methyl-pyridin-3-yl}-benzenesulfonamide] | 2.93 µM | 0.011 µM | 2.42 µM | 4.97 µM | 2.49 µM | –
COc1ncc(C#Cc2c(C)nc(N)nc2-c2ccnc(C)c2)cc1NS(C)(=O)=O [Example 21, N-{5-[2-Amino-4-methyl-6-(2-methyl-pyridin-4-yl)-pyrimidin-5-ylethynyl]-2-methoxy-pyridin-3-yl}-methanesulfonamide] | – | 0.002 µM | – | 0.295 µM | 0.087 µM | 0.022 µM
CCc1ncnc(-c2ccc(CN)nc2)c1C#Cc1cnc(C)c(NS(=O)(=O)c2ccccc2C(F)(F)F)c1 [Example 105, N-{5-[4-(6-Aminomethyl-pyridin-3-yl)-6-ethyl-pyrimidin-5-ylethynyl]-2-methyl-pyridin-3-yl}-2-trifluoromethyl-benzenesulfonamide] | 0.152 µM | 0.00093 µM | 0.406 µM | 1.21 µM | 0.958 µM | –
CCc1nc(N)nc(-c2cccc(C#N)c2)c1C#Cc1cnc(C)c(NS(=O)(=O)c2ccc(F)cc2F)c1 [Example 34, N-{5-[2-Amino-4-(3-cyano-phenyl)-6-ethyl-pyrimidin-5-ylethynyl]-2-methyl-pyridin-3-yl}-2,4-difluoro-benzenesulfonamide] | 0.174 µM | 0.0009 µM | – | 0.107 µM | 0.147 µM | 0.017 µM
CNC(=O)c1ccc(-c2nc(N)nc(C)c2C#Cc2cnc(Cl)c(NS(C)(=O)=O)c2)cc1Cl [Example 26, 4-[2-Amino-5-(6-chloro-5-methanesulfonylamino-pyridin-3-ylethynyl)-6-methyl-pyrimidin-4-yl]-2-chloro-N-methyl-benzamide] | – | 0.00083 µM | – | 0.053 µM | 0.151 µM | 0.017 µM
CCc1nc(N)nc(-c2ccc(C3CC3)nc2)c1C#Cc1cnc(C)c(NS(C)(=O)=O)c1 [Example 13, N-{5-[2-Amino-4-(6-cyclopropyl-pyridin-3-yl)-6-ethyl-pyrimidin-5-ylethynyl]-2-methyl-pyridin-3-yl}-methanesulfonamide] | – | 0.00074 µM | – | 0.132 µM | 0.141 µM | 0.024 µM
CCc1ncnc(-c2cccc(CN(C)C)c2)c1C#Cc1cnc(C)c(NS(=O)(=O)c2ccc(F)cc2F)c1 [Example 30, N-{5-[4-(3-Dimethylaminomethyl-phenyl)-6-ethyl-pyrimidin-5-ylethynyl]-2-methyl-pyridin-3-yl}-2,4-difluoro-benzenesulfonamide] | 0.188 µM | 0.002 µM | – | 0.108 µM | 0.347 µM | 0.077 µM
